Tests used:
[1] = system: normal hemopoietic progenitor cells; assay: Indirect cloning (two-phase culture) of normal hemopoietic progenitors; assay type: cell-based, human; conditions: indirect cloning system, control (0) 70
Protocol: Indirect cloning: Cells were prepared as described for direct cloning, were first incubated for several days in liquid culture supplemented with or without the indicated growth factors or tested fraction, then washed. and cloned in semi-solid medium as described above.
Expansion of normal hemopoietic progenitors—In order to test the effect of SDF on early and late normal hemopoietic progenitors a two-phase culture procedure was employed:
Phase 1 (Expansion phase)—Light density BM or PB cells were incubated for several days in liquid medium supplemented with SDF.
Phase 2 (Clonal phase)—At the end of phase 1, cells were harvested, washed and recultured in either semi solid medium or in liquid medium supplemented with either recombinant human late growth/differentiation factors like GM-CSF, Epo, or 5637-CM, which contains GM, G-CSF. IL-6, IL-1 and other cytokines, but not Epo. […] The lineage specific differentiation of the colonies in Phase 2 depended on the late factor present, e.g., Epo for CFU-E and GM-CSF for CFU-GM.

HL-60 cells [2] = assay: Cell proliferation assay (3H-thymidine incorporation) on HL-60 cells; assay type: cell-based, human
Protocol: (§1) Cell lines included the human myelomonocytic cells HL-60, GM-CSF-dependent human myelomonocytic cells LK (established in the inventors' laboratory) and the murine monocytic cell line WEHI. Cell lines were maintained by sub-culturing every 3-4 days at 2.5×10^5 cell/ml in either alpha minimal essential or RPMI-1640 media (GIBCO, Grand Island, N.Y.) supplemented with 10-20% fetal calf serum (FCS) (Bio Labs Jerusalem, Israel). The cultures were incubated at 37° C., in a humidified atmosphere of 5% CO2 in air. The concentration of viable cells was determined by the trypan blue exclusion technique. Total cell count was performed using a Coulter counter.
HL-60 or other cells were cultured at 1.3×10^5/ml in 24-well dish and medium containing 0.5% heat-inactivated FCS and various dilutions of the tested fractions. DNA synthesis was determined on day 4 by incorporation of ^3[H]-thymidine ([…]/150 μl) (5 mCi/mmol, ICN Radiochemicals, Irvine, Calif.) added 12 hrs before harvesting. One unit of SDF was defined as the amount per milliliter required for 50% decrease in ^3H-thymidine incorporation.

HL-60 cells [3] = assay: Leukemic cell cloning (colony formation) of HL-60 cells in semi-solid medium; assay type: cell-based, human; conditions: HL-60 600 cells/ml; 8 days; mean of two experiments; G-CSF 1000 U/ml, IL-1 100 U/ml
Protocol: as §1
(§2) 300-1000 cells/ml were seeded in semi-solid medium composed of 0.83% methyl-cellulose (Fisher Scientific company, Fair Lawn, N.J.) or 0.3% Bacto agar (Difco laboratories, Detroit, Mich.) in alpha medium supplemented with 10% FCS. Colony number was scored with an inverted microscope on day 8. In order to determine cellular maturation, single colonies were picked up with a fine capillary tube, smeared on a glass slide and stained.

WEHI cells = assay: Leukemic cell cloning (colony formation) of WEHI cells in semi-solid medium; assay type: cell-based, murine; conditions: WEHI 300 cells/ml; 8 days; mean of two experiments; G-CSF 100 U/ml, IL-1 100 U/ml
Protocol: as §1, §2

O=C(O)c1cc(C(=O)O)c2c(n1)C(=O)C(=O)c1cc(C(=O)O)[nH]c1-2 [PQQ, pyrroloquinoline quinone]
Colony No. ([1]; PQQ concentration 0.01 μg/ml): 89 | Colony No. ([1]; PQQ concentration 0.1 μg/ml): 109 | Colony No. ([1]; PQQ concentration 1 μg/ml): 130 | Colony No. ([1]; PQQ concentration 5 μg/ml): 148 | inhibition at 0.01 µg/mL (HL-60 cells [2]; Homo sapiens, HL-60, PQQ concentration 0.01 μg/ml, HL60 cells, read-out: Growth inhibition (%)): 0% | inhibition at 0.05 µg/mL (HL-60 cells [2]; Homo sapiens, HL-60, PQQ concentration 0.05 μg/ml, HL60 cells, read-out: Growth inhibition (%)): 30% | inhibition at 0.1 µg/mL (HL-60 cells [2]; Homo sapiens, HL-60, PQQ concentration 0.1 μg/ml, HL60 cells, read-out: Growth inhibition (%)): 30% | inhibition at 0.5 µg/mL (HL-60 cells [2]; Homo sapiens, HL-60, PQQ concentration 0.5 μg/ml, HL60 cells, read-out: Growth inhibition (%)): 40% | inhibition at 1 µg/mL (HL-60 cells [2]; Homo sapiens, HL-60, PQQ concentration 1 μg/ml, HL60 cells, read-out: Growth inhibition (%)): 40% | inhibition at 5 µg/mL (HL-60 cells [2]; Homo sapiens, HL-60, PQQ concentration 5 μg/ml, HL60 cells, read-out: Growth inhibition (%)): 60%

CC1=C(/C=C/C(C)=C/C=C/C(C)=C/C(=O)O)C(C)(C)CCC1 [Retinoic acid]
Colonies: Diffused (fully differentiated) (HL-60 cells [3]): 114 | Colonies: Partially diffused (partially differentiated) (HL-60 cells [3]): 49 | Colonies: Tight (undifferentiated) (HL-60 cells [3]): 0 | Colonies: Total (HL-60 cells [3]): 163

B1: ceruloplasmin (protein, UniProt P00450 20-1065, looked up)
Ceruloplasmin: KEKHYYIGIIETTWDYASDHGEKKLISVDTEHSNIYLQNGPDRIGRLYKKALYLQYTDETFRTTIEKPVWLGFLGPIIKAETGDKVYVHLKNLASRPYTFHSHGITYYKEHEGAIYPDNTTDFQRADDKVYPGEQYTYMLLATEEQSPGEGDGNCVTRIYHSHIDAPKDIASGLIGPLIICKKDSLDKEKEKHIDREFVVMFSVVDENFSWYLEDNIKTYCSEPEKVDKDNEDFQESNRMYSVNGYTFGSLPGLSMCAEDRVKWYLFGMGNEVDVHAAFFHGQALTNKNYRIDTINLFPATLFDAYMVAQNPGEWMLSCQNLNHLKAGLQAFFQVQECNKSSSKDNIRGKHVRHYYIAAEEIIWNYAPSGIDIFTKENLTAPGSDSAVFFEQGTTRIGGSYKKLVYREYTDASFTNRKERGPEEEHLGILGPVIWAEVGDTIRVTFHNKGAYPLSIEPIGVRFNKNNEGTYYSPNYNPQSRSVPPSASHVAPTETFTYEWTVPKEVGPTNADPVCLAKMYYSAVEPTKDIFTGLIGPMKICKKGSLHANGRQKDVDKEFYLFPTVFDENESLLLEDNIRMFTTAPDQVDKEDEDFQESNKMHSMNGFMYGNQPGLTMCKGDSVVWYLFSAGNEADVHGIYFSGNTYLWRGERRDTANLFPQTSLTLHMWPDTEGTFNVECLTTDHYTGGMKQKYTVNQCRRQSEDSTFYLGERTYYIAAVEVEWDYSPQREWEKELHHLQEQNVSNAFLDKGEFYIGSKYKKVVYRQYTDSTFRVPVERKAEEEHLGILGPQLHADVGDKVKIIFKNMATRPYSIHAHGVQTESSTVTPTLPGETLTYVWKIPERSGAGTEDSACIPWAYYSTVDQVKDLYSGLIGPLIVCRRPYLKVFNPRRKLEFALLFLVFDENESWYLDDNIKTYSDHPEKVNKDDEEFIESNKMHAINGRMFGNLQGLTMHVGDEVNWYLMGMGNEIDLHTVHFHGHSFQYKHRGVYSSDVFDIFPGTYQTLEMFPRTPGIWLLHCHVTDHIHAGMETTYTVLQNEDTKSG
activity of the CP fraction separated from SDF (HL-60 cells [2]; CP fraction eluted at about 40% acetonitrile from RP-HPLC Resource column): devoid of activity

B2: G-CSF: growth factor (colony stimulating factor) used for comparison (protein, UniProt P09919 31-207, looked up)
Granulocyte …: TPLGPASSLPQSFLLKCLEQVRKIQGDGAALQEKLVSECATYKLCHPEELVLLGHSLGIPWAPLSSCPSQALQLAGCLSQLHSGLFLYQGLLQALEGISPELGPTLDTLQLDVADFATTIWQQMEELGMAPALQPTQGAMPAFASAFQRRAGGVLVASHLQSFLEVSYRVLRHLAQP
Colonies: Diffused (fully differentiated) (HL-60 cells [3]): 0 | Colonies: Partially diffused (partially differentiated) (HL-60 cells [3]): 12 | Colonies: Tight (undifferentiated) (HL-60 cells [3]): 325 | Colonies: Total (HL-60 cells [3]): 337 | Colonies: Diffused (fully differentiated) (WEHI cells): 51 | Colonies: Partially diffused (partially differentiated) (WEHI cells): 55 | Colonies: Tight (undifferentiated) (WEHI cells): 25 | Colonies: Total (WEHI cells): 132

Reference: US6783775B2, “Serum-derived factor inducing cell differentiation and medical uses thereof” (Hadasit Medical Research Services and Development Ltd., priority 1996, dated 2004)
